# Entries after “also recorded” stand apart in the source; their conditions may differ.
# How the values were obtained:
# 4T1 breast tumor cells = test: 4T1 spontaneously metastatic mouse breast tumor model: subcutaneous tumor growth, liver and lung metastases; format: in vivo
# MMP-9 = test: Zymography for MMP-9 activity in KM12L4a human colon xenografts; format: in vivo, mouse; settings: 100 mg/kg for 7 days; KM12L4a tumors in Nu/nu mice; listed as 4-amino-5-fluoro-3-[6-(4-methylpiperazin-1-yl)-1H-benzimidazol-2-yl]quinolin-2(1)
# Protocol: Female Nu/nu mice (6-8 weeks old, 18-22 grams) were obtained from Charles River Laboratories (Wilmington, Mass.). Tumor cells (2×10^6 KM12L4a) were implanted subcutaneous into the flank of mice and allowed to grow to the desired size before treatment was initiated. […] The tumors were resected and flash frozen in liquid nitrogen.
# After electrophoresis, gels were washed twice for 15 minutes in 2.5% Triton X-100, incubated overnight at 37° C. in 50 mM Tris-HCl and 10 mM CaCl2, pH 7.6, and stained with 0.5% Comassie Blue and destained with 50% methanol.
# VEGF-A = VEGF-A ELISA in KM12L4a tumor lysates; format: in vivo, mouse; settings: 100 mg/kg for 7 days; KM12L4a tumors in Nu/nu mice; listed as 4-amino-5-fluoro-3-[6-(4-methylpiperazin-1-yl)-1H-benzimidazol-2-yl]quinolin-2(1)
# Source text: […]. Tumor cells (2×10^6 KM12L4a) were implanted subcutaneous into the flank of mice and allowed to grow to the desired size before treatment was initiated. […] The tumors were resected and flash frozen in liquid nitrogen.
# VEGF-A protein levels in KM12L4a tumor lysates were quantified using a commercially available ELISA kit (R and D Systems, Minneapolis, Minn.) according to the manufacturer's procedures.
# [1] = system: KM12L4a human colon tumors; test: Antibody immunohistochemistry staining of KM12L4a human colon tumors (Ki67, PARP, caspase-3, CD31); format: in vivo, mouse; settings: 100 mg/kg for 7 days
# ICAM = test: Western blot analysis of HUVECs, ICAM; settings: 100 nM, lysates at 0, 16 and 24 hours
# VCAM = test: Western blot analysis of HUVECs, VCAM; settings: 100 nM, lysates at 0, 16 and 24 hours
# α5 integrin = test: Western blot analysis of HUVECs, α5 integrin; settings: 100 nM, lysates at 0, 16 and 24 hours
# αv integrin = test: Western blot analysis of HUVECs, αv integrin; settings: 100 nM; lysates at 0, 16 and 24 hours
# soluble ICAM = test: Soluble ICAM ELISA in serum of 4T1 tumor bearing mice; settings: 4T1 breast tumors
# soluble VCAM = test: Soluble VCAM ELISA in serum of 4T1 tumor bearing mice; settings: 4T1 breast tumors
# [2] = 10 mpk orally, daily for 18 days
# [3] = 30 mpk orally, daily for 18 days
# [4] = 60 mpk orally, daily for 18 days
# [5] = 100 mpk orally, daily for 18 days
# [6] = 150 mpk orally, daily for 18 days
# [7] = orally, daily, after 18 days of dosing, BALB/C mice
# [8] = listed as 4-amino-5-fluoro-3-[6-(4-methylpiperazin-1-yl)-1H-benzimidazol-2-yl]quinolin-2(1)
# [9] = 100 or 150 mg/kg orally, daily for 18 days
# [10] = varying amounts (10-150 mg/kg), 18 days
smiles,measurement,setting,value
CN1CCN(c2ccc3nc(-c4c(N)c5c(F)cccc5[nH]c4=O)[nH]c3c2)CC1 [Compound 1],growth of the subcutaneous tumor inhibited compared to control,"4T1 breast tumor cells; 10-150 mg/kg orally, daily for 18 days, BALB/C mice",40-80%
same,# of Liver Metastases Mean +/− SD,4T1 breast tumor cells; [2],22.0 +/− 32.3
same,Liver Metastases: Incidence of Metastases,4T1 breast tumor cells; [2],7/8
same,# of Liver Metastases Mean +/− SD,4T1 breast tumor cells; [3],3.1 +/− 3.5
same,Liver Metastases: Incidence of Metastases,4T1 breast tumor cells; [3],6/10
same,# of Liver Metastases Mean +/− SD,4T1 breast tumor cells; [4],0.7 +/− 0.9
same,Liver Metastases: Incidence of Metastases,4T1 breast tumor cells; [4],5/10
same,# of Liver Metastases Mean +/− SD,4T1 breast tumor cells; [5],4.1 +/− 13.0
same,Liver Metastases: Incidence of Metastases,4T1 breast tumor cells; [5],1/10
same,# of Liver Metastases Mean +/− SD,4T1 breast tumor cells; [6],0.0 +/− 0.0
same,Liver Metastases: Incidence of Metastases,4T1 breast tumor cells; [6],0/9
same,liver metastases inhibition,4T1 breast tumor cells; [7],completely inhibited
same,lung metastases inhibited,4T1 breast tumor cells; [7],60-97%
same,MMP-9 activity in tumors (zymography),MMP-9,decreased MMP-9 activity; also recorded: decrease
same,VEGF production in tumors (ELISA),VEGF-A,reduced VEGF production; also recorded: decrease
same,apoptosis (PARP cleavage and caspase-3),[1],induced apoptosis
same,tumor cell proliferation (Ki67),[1],decreased tumor cell proliferation
same,vascular density (CD31),[1],reduced vascular density
same,expression of ICAM in HUVECs,ICAM,decreased
same,expression of ICAM in HUVECs,ICAM; [8],decrease
same,expression of VCAM in HUVECs,VCAM,decreased
same,expression of VCAM in HUVECs,VCAM; [8],decrease
same,expression of α5 integrin in HUVECs,α5 integrin,decreased
same,expression of α5 integrin in HUVECs,α5 integrin; [8],decrease
same,expression of αv integrin in HUVECs,αv integrin,not αν integrin
same,inhibition of soluble ICAM in serum,soluble ICAM; [9],greater than 70%
same,"soluble ICAM in serum, effect in words",soluble ICAM; [10],dose-dependent reduction
same,inhibition of soluble VCAM in serum,soluble VCAM; [9],44-47%
same,"soluble VCAM in serum, effect in words",soluble VCAM; [10],dose-dependent reduction

# From patent US7875624B2, “Modulating and measuring cellular adhesion” (Novartis Vaccines and Diagnostics, Inc., priority 2004, dated 2011)
